Results as given in ChEMBL document CHEMBL1201862, “PubChem BioAssay data set” (2004).
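Method: 48-hour compound exposure of cells in 96-well plates, five concentrations, linear interpolation of endpoints. The concentration for 50% growth inhibition is given as GI50.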 Activity calls are given as the source filed them. No stated cut-off is given here; in the data, active = GI50 up to about 1.1 µM and inactive = higher.

How the values were obtained:
Assay in all cases: inhibition of tumour cell growth, NCI panel, 48 h
K562 = system: K562
CAKI-1 = system: CAKI-1
SK-OV-3 = system: SK-OV-3
NCI-H522 = system: NCI-H522
RPMI-8226 = system: RPMI-8226
RXF 393 = system: RXF 393
SF-268 = system: SF-268
SNB-75 = system: SNB-75
UACC-257 = system: UACC-257
HOP-62 = system: HOP-62
HL-60 = system: HL-60
SNB-19 = system: SNB-19
SK-MEL-2 = system: SK-MEL-2
KM-20L2 = system: KM-20L2
SK-MEL-28 = system: SK-MEL-28
Malme-3M = system: Malme-3M
NCI-H226 = system: NCI-H226
SW-620 = system: SW-620
TK-10 = system: TK-10
A498 = system: A498

Structure (SMILES)	GI50 (K562)	GI50 (CAKI-1)	GI50 (SK-OV-3)	GI50 (NCI-H522)	GI50 (RPMI-8226)	GI50 (RXF 393)	GI50 (SF-268)	GI50 (SNB-75)	GI50 (UACC-257)	GI50 (HOP-62)	GI50 (HL-60)	GI50 (SNB-19)	GI50 (SK-MEL-2)	GI50 (KM-20L2)	GI50 (SK-MEL-28)	GI50 (Malme-3M)	GI50 (NCI-H226)	GI50 (SW-620)	GI50 (TK-10)	GI50 (A498)
C=C1C(C)C2C(Cc3ccccc3)NC(=O)C23C(OC(C)=O)C=CC(C)(O)C(=O)C(C)C/C=C/C3C1O (stereo not given)	33.1 µM (inactive)	0.129 µM (active)	0.752 µM (active)	2.43 µM (inactive)	5.98 µM (inactive)	0.0865 µM (active)	1.45 µM (inactive)	0.0333 µM (active)	6.59 µM (inactive)	0.0678 µM (active)	4.57 µM (inactive)	0.217 µM (active)	6.22 µM (inactive)	0.158 µM (active)	2.47 µM (inactive)	30.5 µM (inactive)	3.85 µM (inactive)	87.7 µM (inactive)	0.505 µM (active)	
CCCC1C[C@H]2CCCCN2[C@H]2CCCN12 (stereo not given in full)	> 50.2 µM (inactive)	> 100 µM (inactive)	> 100 µM (inactive)	> 100 µM (inactive)	> 43.4 µM (inactive)	> 48.2 µM (inactive)	> 100 µM (inactive)	> 100 µM (inactive)	> 100 µM (inactive)	> 100 µM (inactive)	> 37.8 µM (inactive)	> 100 µM (inactive)	> 100 µM (inactive)	> 88.3 µM (inactive)	> 100 µM (inactive)	> 100 µM (inactive)	> 100 µM (inactive)	> 37.8 µM (inactive)	> 100 µM (inactive)	> 100 µM (inactive)
NC(=O)c1c[se]c(C2OC(COP(=O)(O)CP(=O)(O)OCC3OC(n4cnc5c(N)ncnc54)C(O)C3O)C(O)C2O)n1 (stereo not given)	15.9 µM (inactive)	43.3 µM (inactive)	> 100 µM (inactive)	> 100 µM (inactive)		> 100 µM (inactive)	> 100 µM (inactive)	> 100 µM (inactive)	> 100 µM (inactive)	> 100 µM (inactive)	28.2 µM (inactive)	> 100 µM (inactive)	> 100 µM (inactive)	74.5 µM (inactive)	> 100 µM (inactive)	> 100 µM (inactive)	> 100 µM (inactive)	30.9 µM (inactive)		> 100 µM (inactive)
COc1cc2c(cc1O)C=NCC2	> 100 µM (inactive)	> 100 µM (inactive)	> 100 µM (inactive)	> 100 µM (inactive)	> 100 µM (inactive)		> 100 µM (inactive)	> 100 µM (inactive)	> 100 µM (inactive)		> 100 µM (inactive)	> 100 µM (inactive)	> 100 µM (inactive)	> 100 µM (inactive)	> 100 µM (inactive)	> 100 µM (inactive)	> 100 µM (inactive)	> 100 µM (inactive)	> 100 µM (inactive)	94.2 µM (inactive)
CN(C)/C(N)=N\C#N	> 100 µM (inactive)	> 100 µM (inactive)	> 100 µM (inactive)	> 100 µM (inactive)	64.7 µM (inactive)	17.5 µM (inactive)	> 100 µM (inactive)	> 100 µM (inactive)	> 100 µM (inactive)	> 100 µM (inactive)	> 100 µM (inactive)	> 100 µM (inactive)	> 100 µM (inactive)	> 100 µM (inactive)	> 100 µM (inactive)	> 100 µM (inactive)	> 100 µM (inactive)	21 µM (inactive)	> 100 µM (inactive)	> 100 µM (inactive)
CC(=O)C1Cn2c(=O)c3cc4ccccc4cc3c(=O)n2C=C1C (stereo not given)	> 100 µM (inactive)	> 100 µM (inactive)	> 100 µM (inactive)	> 100 µM (inactive)	> 100 µM (inactive)	> 100 µM (inactive)	> 100 µM (inactive)	67.8 µM (inactive)	> 100 µM (inactive)	> 100 µM (inactive)	> 100 µM (inactive)	> 100 µM (inactive)	> 100 µM (inactive)	> 100 µM (inactive)	> 100 µM (inactive)	> 100 µM (inactive)	> 100 µM (inactive)	> 100 µM (inactive)	> 100 µM (inactive)	43.5 µM (inactive)
CCSC(SCC)=C1C(=O)N(c2ccccc2)N=C1C	5.71 µM (inactive)	3.8 µM (inactive)	17.9 µM (inactive)	1.95 µM (inactive)	7.67 µM (inactive)	1.95 µM (inactive)	14.1 µM (inactive)	20.6 µM (inactive)	4.06 µM (inactive)	23.3 µM (inactive)	2.33 µM (inactive)	25.2 µM (inactive)	15.8 µM (inactive)	16.8 µM (inactive)	12.9 µM (inactive)	10.4 µM (inactive)	15.7 µM (inactive)	7.66 µM (inactive)	10.1 µM (inactive)	15.3 µM (inactive)
